# Results from patent US5462954A, “Substituted phenyl phenol leukotriene antagonists” (Eli Lilly and Company, priority 1994, dated 1995).
# Where a name gives a salt, the structure may show the parent alone.
# Target: binding of tritiated LTB4 to guinea pig lung membranes (Cavia porcellus, UniProt H0VYV8)
# Assay: biochemical
# Settings: read-out: pKi (mean -log Ki) (converted)
# Experimental: The effectiveness of compounds of Formula I to inhibit the binding of tritiated LTB4 to guinea pig lung membranes was determined as follows.
# The binding reaction was terminated by the addition of 1 mL ice cold wash buffer (25 mM Tris-HCl, pH 7.5) followed immediately by vacuum filtration over Whatman GF/C glass fiber filters using a Brandel (Gaithersburg, Md.) 48 place harvester. The filters were washed three times with 1 mL of wash buffer. Retained radioactivity was determined by liquid scintillation counting at 50% counting efficiency using Ready Protein Plus cocktail (Beckman, Fullerton, Calif.). Nondisplaceable binding was determined in the presence of 1 μM LTB4 and was usually less than 10% of total binding. […] The data reported below is the mean -log Ki, otherwise known as the pKi, for n experiments.
# Sequence of binding of tritiated LTB4 to guinea pig lung membranes (H0VYV8 1-348): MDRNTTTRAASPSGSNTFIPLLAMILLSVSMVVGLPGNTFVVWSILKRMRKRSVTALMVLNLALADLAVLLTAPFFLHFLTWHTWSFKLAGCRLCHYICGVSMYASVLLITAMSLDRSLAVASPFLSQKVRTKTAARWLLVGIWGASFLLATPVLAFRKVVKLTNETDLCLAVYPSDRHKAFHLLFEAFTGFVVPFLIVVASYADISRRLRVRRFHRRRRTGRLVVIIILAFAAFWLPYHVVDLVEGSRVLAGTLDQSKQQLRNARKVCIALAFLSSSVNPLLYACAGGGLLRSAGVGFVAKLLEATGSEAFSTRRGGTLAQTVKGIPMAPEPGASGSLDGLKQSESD
row,Structure (SMILES),Ki [nM]
1,"CCc1cc(-c2ccccc2)c(O)cc1OCCCOc1ccc2c(=O)c3ccccc3oc2c1CCC(=O)O [Example 64, 3-[4-[3-[3-(2-Ethyl-5-hydroxy-4-phenylphenoxy)propoxy]-9-oxo-9H-xanthene]]propanoicacid sodium salt hemihydrate]",14.1
2,"CCc1cc(-c2ccccc2)c(O)cc1OCCCOc1ccc2c(c1CCC(=O)O)CCC(CC(=O)O)C2=O (centres unmarked) [Example 50, 3-(5-(6-(4-Phenyl-5-hydroxy-2-ethylphenoxy)propoxy)-2-carboxymethyl-1,2,3,4-tetrahydronaphthalen-1(2H)-one)propanoic acid]",0.851
3,"CCc1cc(-c2ccccc2)c(O)cc1OCCCOc1ccc2oc3ccccc3c2c1CCC(=O)O [Example 59, 3-[2-[3-[(5-Ethyl-2-hydroxy[1,1'-biphenyl]-4-yl)oxy]propoxy]-1-dibenzofuran]propanoic acid disodium salt]",51.3
4,"CCc1cc(-c2ccc(F)cc2)c(O)cc1OCCCOc1cccc(Oc2ccccc2C(=O)O)c1CC(C)C [Example 74, 2-[2-(2-Methylpropyl)-3-[3-[2-ethyl-5-hydroxy-4-(4-fluorophenyl)phenoxy]propoxy]phenoxy]benzoic acid]",13.8
5,"CCCCc1cc(-c2ccc(F)cc2)c(O)cc1OCCCOc1ccccc1CCC(=O)O [Example 21, 3-(2-(3-(2-Butyl-4-(4-fluorophenyl)-5-hydroxyphenoxy)propoxy)phenyl)propionic acid]",47.9
6,"CCc1cc(-c2ccc(F)cc2)c(O)cc1OCCCOc1ccccc1CCC(=O)NS(C)(=O)=O [Example 19, N-Methanesulfonyl-3-(2-(3-(2-ethyl-4-(4-fluorophenyl)-5-hydroxyphenoxy)propoxy)phenyl)propionamide]",1.51
7,CCCc1ccc(CCC(=O)O)cc1OCCCOc1cc(O)c(-c2ccc(F)cc2)cc1CC [sodium salt],102
8,"CCc1cc(-c2ccc(F)cc2)c(O)cc1OCC/C=C\c1ccccc1CCC(=O)O [9 (cis), 3-(2-(4-(2-Ethyl-4-(4-fluorophenyl)-5-hydroxyphenoxy)-(1-butenyl))phenyl)propionic acid]",3.63
9,"CCCc1c(OCCCOc2cc(O)c(-c3ccc(F)cc3)cc2CC)cccc1Sc1ccccc1C(=O)O [Example 80, 2-[2-Propyl-3-[3-[2-ethyl-4-(4-fluorophenyl)-5-hydroxyphenoxy]propoxy]thiophenoxy]benzoic acid]",11.2
10,"O=C(O)CCCCOc1cccc(OCCCOc2cc(O)c(-c3ccc(F)cc3)cc2-c2ccc(F)cc2)c1CCC(=O)O [Example 16, 3-(2-(3-(2,4-Di(4-fluorophenyl)-5-hydroxyphenoxy)propoxy)-6-(4-carboxybutoxy)phenyl)propionic acid]",17.4
11,"CCc1cc(-c2ccc(F)cc2)c(O)cc1OCCCOc1ccccc1CCC(=O)NS(=O)(=O)c1ccccc1 [Example 20, N-Phenylsulfonyl-3-(2-(3-(2-ethyl-4-(4-fluorophenyl)-5-hydroxyphenoxy)propoxy)phenyl)propionamide]",2.29
12,"CCCc1c(OCCCOc2cc(O)c(-c3ccc(F)cc3)cc2CC)cccc1Oc1cc(F)ccc1C(=O)O [Example 71, 4-Fluoro-2-[2-propyl-3-[3-[2-ethyl-5-hydroxy-4-(4-fluorophenyl)phenoxy]propoxy]phenoxy]benzoic acid]",17
13,"CCc1cc(-c2ccc(F)cc2)c(O)cc1OCCC=Cc1ccccc1CCC(=O)O [Example 9, 3-(2-(4-(2-Ethyl-4-(4-fluorophenyl)-5-hydroxyphenoxy)-(1-butenyl))phenyl)propionic acid]",5.13
14,CCc1cc(-c2ccc(F)cc2)c(O)cc1OCCCOc1ccc(C(=O)CC(C)(C)CC(=O)O)cc1CCC(=O)O [Example 53],1.55
15,"CCCCCC(C)(CCCCCOc1cc(O)c(-c2ccc(F)cc2)cc1CC)c1nnn[nH]1 (centres unmarked) [Example 17, 6-Methyl-6-(1H-tetrazol-5-yl)-11-(2-ethyl-4-(4-fluorophenyl)-5-hydroxyphenoxy)undecane]",53.7
16,"CCSc1cc(-c2ccc(F)cc2)c(O)cc1OCCCOc1ccccc1CCC(=O)O [Example 31, 3-(2-(3-(2-Ethylthio-4-(4-fluorophenyl)-5-hydroxyphenoxy)propoxy)phenyl)propionic acid]",81.3
17,"CCc1cc(-c2ccc(F)cc2)c(O)cc1OCCCOc1ccccc1CCC(=O)N(C)C [Example 18, N,N-Dimethyl-3-(2-(3-(2-ethyl-4-(4-fluorophenyl)-5-hydroxyphenoxy)propoxy)phenyl)propionamide]",245
18,"CCCc1c(OCCCOc2cc(O)c(-c3ccccc3)cc2CC)cccc1Oc1cccc(F)c1C(=O)O [Example 65, 2-Fluoro-6-[2-propyl-3-[3-(2-ethyl-5-hydroxy-4-phenylphenoxy)propoxy]phenoxy]benzoic acid disodium salt]",12.3
19,CCc1cc(-c2ccc(F)cc2)c(O)cc1OCCCOc1ccc(NC(=O)CCCC(=O)N2CCOCC2)cc1CCC(=O)O [Example 69],12.9

row,Structure (SMILES),Ki [nM]
1,"CCCc1c(OCCCOc2cc(O)c(-c3ccc(F)cc3)cc2CC)cccc1S(=O)(=O)c1ccccc1C(=O)O [Example 82, 2-[2-Propyl-3-[3-[2-ethyl-4-(4-fluorophenyl)-5-hydroxyphenoxy]propoxy]phenylsulfonyl]benzoic acid hydrate]",10.2
2,"CCc1cc(-c2ccc(F)cc2)c(O)cc1OCC/C=C/c1ccccc1CCC(=O)O [9 (trans), 3-(2-(4-(2-Ethyl-4-(4-fluorophenyl)-5-hydroxyphenoxy)-(1-butenyl))phenyl)propionic acid]",3.89
3,"CCc1cc(-c2ccc(F)cc2)c(O)cc1OCCCOc1ccccc1/C=C/C(=O)O [Example 87, 3-(2-(3-(2-Ethyl-4-(4-fluorophenyl)-5-hydroxyphenoxy)propoxy)phenyl)-E-propenoic acid]",9.55
4,"CCCc1c(OCCCCOc2cc(O)c(-c3ccc(F)cc3)cc2CC)cccc1Oc1ccccc1C(=O)O [Example 73, 2-[2-Propyl-3-[4-[2-ethyl-5-hydroxy-4-(4-fluorophenyl)phenoxy]butoxy]phenoxy]benzoic acid sesquihydrate]",17.8
5,"CCc1cc(-c2ccc(F)cc2)c(O)cc1OCCCCCC(c1ccc(OCC(=O)O)cc1)c1nn[nH]n1 (centres unmarked) [Example 85, 1-(4-(Carboxymethoxy)phenyl)-1-(1H-tetrazol-5-yl)-6-(2-ethyl-4-(4-fluorophenyl)-5-hydroxyphenoxy)hexane]",0.245
6,"CCc1cc(-c2ccc(F)cc2)c(O)cc1OCCCOc1ccccc1CC(C)(C)c1nnn[nH]1 [Example 28, 2-Methyl-2-(1H-tetrazol-5-yl)-3-(2-(3-(2-ethyl-4-(4-fluorophenyl)-5-hydroxyphenoxy)propoxy)phenyl)propane]",2.69
7,"CCc1cc(-c2ccc(F)cc2)c(O)cc1OCCCOc1ccccc1C(C)(C)CC(=O)O [Example 27, 3,3-Dimethyl-3-(2-(3-(2-ethyl-4-(4-fluorophenyl)-5-hydroxyphenoxy)propoxy)phenyl)propionic acid]",2.29
8,"CCc1cc(-c2ccc(F)cc2)c(O)cc1OCCCOc1cccc(OCCCCc2nnn[nH]2)c1CCC(=O)O [Example 7, 3-(2-(3-(2-Ethyl-4-(4-fluorophenyl)-5-hydroxyphenoxy)propoxy)-6-(4-(1H-tetrazol-5-yl)butyloxy)phenyl)propionic acid]",1.35
9,CCCc1c(OCCCOc2cc(O)c(-c3ccc(F)cc3)cc2CC)cccc1Oc1ccccc1C(=O)O [sodium salt],5.62
10,"CCc1cc(-c2ccc(F)cc2)c(O)cc1OCCCOc1cccc2c1CCC(=O)O2 [Example 91, 5-[3-[4-(4-Fluorophenyl)-2-ethyl-5-hydroxyphenoxy]propoxy]-3,4-dihydro-2H-1-benzopyran-2-one]",0.525
11,"CCc1cc(-c2ccc(F)cc2)c(O)cc1OCCCCc1cccc(OC)c1CCC(=O)O [Example 11, 3-(2-(4-(2-Ethyl-4-(4-fluorophenyl)-5-hydroxyphenoxy)butyl)-6-methoxyphenyl)propionic acid]",21.4
12,"CCc1cc(-c2ccc(F)cc2)c(O)cc1OCCCOc1cccc(Oc2ccccc2C(=O)O)c1Cc1ccccc1 [Example 76, 2-[2-(Phenylmethyl)-3-[3-[2-ethyl-5-hydroxy-4-(4-fluorophenyl)phenoxy]propoxy]phenoxy]benzoic acid]",53.7
13,"CCCc1c(OCCCOc2cc(O)c(-c3ccccc3)cc2CC)cccc1Oc1ccccc1-c1nnn[nH]1 [Example 63, 5-Ethyl-4-[3-[2-propyl-3-[2-(2H-tetrazol-5-yl)phenoxy]phenoxy]propoxy][1,1'-biphenyl]-2-ol disodium salt sesquihydrate]",11.5
14,"CCc1cc(-c2ccc(F)cc2)c(O)cc1OCCCOc1cc(Oc2ccc(C(=O)O)cc2)ccc1CCC(=O)O [Example 26, 3-(2-(3-(2-Ethyl-4-(4-fluorophenyl)-5-hydroxyphenoxy)propoxy)-4-(4-carboxyphenoxy)phenyl)propionic acid]",13.8
15,"CCc1cc(-c2ccccc2)c(O)cc1OCCCOc1cc(-c2ccccc2)ccc1CCC(=O)O [Example 62, 3-[3-(2-Ethyl-5-hydroxy-4-phenylphenoxy)propoxy][1,1'-biphenyl]-4-propanoicacid disodium salt monohydrate]",57.5
16,"CCc1cc(-c2ccc(F)cc2)c(O)cc1OCCCOc1ccc2c(c1CCC(=O)O)CCC(CC(=O)O)C2=O (centres unmarked) [Example 51, 3-(5-(6-(4-(4-Fluorophenyl)-5-hydroxy-2-ethylphenoxy)propoxy)-2-carboxymethyl-1,2,3,4-tetrahydronaphthalen-1(2H)-one)propanoic acid]",0.219
17,"CCc1cc(-c2ccccc2)c(O)cc1OCCCOc1ccc2c(=O)c3cc(C(=O)O)ccc3oc2c1CCC(=O)O [Example 60, 7-Carboxy-9-oxo-3-[3-(2-ethyl-5-hydroxy-4-phenylphenoxy)propoxy]-9H-xanthene-4-propanoic acid disodium salt monohydrate]",0.0646
18,"CCc1cc(-c2ccc(F)cc2)c(O)cc1OCCCOc1ccccc1/C=C(\C)C(=O)O [Example 88, 3-(2-(3-(2-Ethyl-4-(4-fluorophenyl)-5-hydroxyphenoxy)propoxy)phenyl)-2-methyl-E-propenoic acid]",5.01
19,"CCCc1c(OCCCOc2cc(O)c(-c3ccccc3)cc2CC)ccc2c1OC(C(=O)O)CC2 (centres unmarked) [Example 54, 7-[3-[(5-Ethyl-2-hydroxy[1,1'-biphenyl]-4-yl)oxy]propoxy]-3,4-dihydro-8-propyl-2H-1-benzopyran-2-carboxylic acid]",1.2
